In assay [1] the target is Human immunodeficiency virus type 1 reverse transcriptase (Human immunodeficiency virus 1) (UniProt Q72547). Briefly: Inhibition of HIV1 reverse transcriptase assessed as reduction in [3H]dTTP incorporation by measuring proportional residual activity ratio at 300 uM using poly(rA)/oligo(dT) as template/primer after 30 mins by scintillation counting method.
Assay [2] addresses T1, Human immunodeficiency virus type 1 reverse transcriptase (Human immunodeficiency virus 1, UniProt Q72547). The assay can be described thus: Inhibition of HIV1 reverse transcriptase assessed as reduction in [3H]dTTP incorporation using poly(rA)/oligo(dT) as template/primer after 30 mins by scintillation counting method.
The target of assay [3] is T1, Human immunodeficiency virus type 1 reverse transcriptase. Briefly: Inhibition of HIV1 reverse transcriptase assessed as reduction in [3H]dTTP incorporation using poly(rA)/oligo(dT) as template/primer after 30 mins in presence of Triton-X-100 by scintillation counting method.
For assay [4] the target is unchanged. The assay can be described thus: Inhibition of HIV1 reverse transcriptase assessed as reduction in [3H]dTTP incorporation using poly(rA)/oligo(dT) as template/primer after 30 mins in presence of calf thymus DNA by scintillation counting method.
For assay [5], the target named is Human immunodeficiency virus type 1 reverse transcriptase (Human immunodeficiency virus 1) (UniProt Q72547). The assay can be described thus: Ratio of IC50 for inhibition of HIV1 reverse transcriptase in presence of calf thymus DNA to IC50 for inhibition of HIV1 reverse transcriptase in absence of calf thymus DNA.
The target in assay [6] is T2, DNA polymerase alpha catalytic subunit (Homo sapiens) (UniProt P09884).
T2 sequence (whole entry): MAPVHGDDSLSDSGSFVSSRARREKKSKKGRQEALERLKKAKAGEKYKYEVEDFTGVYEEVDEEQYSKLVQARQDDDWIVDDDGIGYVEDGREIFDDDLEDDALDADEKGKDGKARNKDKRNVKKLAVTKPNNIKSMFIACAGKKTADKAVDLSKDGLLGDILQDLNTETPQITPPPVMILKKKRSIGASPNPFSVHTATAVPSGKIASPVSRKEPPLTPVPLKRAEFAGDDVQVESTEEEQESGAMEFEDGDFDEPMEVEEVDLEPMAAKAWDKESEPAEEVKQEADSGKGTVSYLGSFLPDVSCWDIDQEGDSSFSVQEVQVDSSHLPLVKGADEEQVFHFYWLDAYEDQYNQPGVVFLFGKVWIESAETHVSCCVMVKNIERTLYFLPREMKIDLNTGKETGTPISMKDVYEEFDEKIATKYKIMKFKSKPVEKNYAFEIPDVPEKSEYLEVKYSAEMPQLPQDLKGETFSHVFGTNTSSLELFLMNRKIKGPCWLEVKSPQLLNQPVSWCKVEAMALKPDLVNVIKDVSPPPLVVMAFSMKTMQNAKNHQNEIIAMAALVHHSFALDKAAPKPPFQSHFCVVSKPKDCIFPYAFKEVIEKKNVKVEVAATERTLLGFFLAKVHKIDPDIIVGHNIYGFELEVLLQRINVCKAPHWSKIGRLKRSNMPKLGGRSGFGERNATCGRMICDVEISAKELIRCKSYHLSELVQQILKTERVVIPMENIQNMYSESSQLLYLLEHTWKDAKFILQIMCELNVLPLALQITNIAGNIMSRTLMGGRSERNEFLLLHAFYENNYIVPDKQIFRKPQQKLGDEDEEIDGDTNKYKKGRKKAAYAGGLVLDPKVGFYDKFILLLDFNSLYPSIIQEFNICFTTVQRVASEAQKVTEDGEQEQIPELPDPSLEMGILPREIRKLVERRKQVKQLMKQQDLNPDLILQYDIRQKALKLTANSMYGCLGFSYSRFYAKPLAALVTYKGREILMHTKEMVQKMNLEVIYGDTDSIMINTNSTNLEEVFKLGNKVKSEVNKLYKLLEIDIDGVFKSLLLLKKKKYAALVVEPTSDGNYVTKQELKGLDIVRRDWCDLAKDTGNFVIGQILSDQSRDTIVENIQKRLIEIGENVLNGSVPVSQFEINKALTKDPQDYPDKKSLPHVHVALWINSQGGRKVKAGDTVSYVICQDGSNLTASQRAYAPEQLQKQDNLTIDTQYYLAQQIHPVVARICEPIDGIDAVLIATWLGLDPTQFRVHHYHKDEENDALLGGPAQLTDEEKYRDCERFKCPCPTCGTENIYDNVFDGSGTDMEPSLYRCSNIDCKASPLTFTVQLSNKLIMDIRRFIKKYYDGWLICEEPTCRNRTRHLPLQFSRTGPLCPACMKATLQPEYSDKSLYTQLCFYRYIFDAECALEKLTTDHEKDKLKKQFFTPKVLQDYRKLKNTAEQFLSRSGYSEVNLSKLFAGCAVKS
The assay can be described thus: Inhibition of human DNA polymerase-alpha assessed as reduction in [3H]dTTP incorporation in to activated calf thymus DNA substrate at 600 uM after 30 mins by scintillation counting method relative to control.

In assay [7] the target is Human immunodeficiency virus type 1 reverse transcriptase (Human immunodeficiency virus 1) (UniProt Q72547). The assay can be described thus: Inhibition of HIV1 reverse transcriptase assessed as reduction in [3H]dTTP incorporation by measuring proportional residual activity ratio at 20 uM using poly(rA)/oligo(dT) as template/primer after 30 mins by scintillation counting method relative to control.

Assay [8] has the same target. The assay can be described thus: Inhibition of HIV1 reverse transcriptase assessed as reduction in [3H]dTTP incorporation by measuring proportional residual activity ratio at 100 uM using poly(rA)/oligo(dT) as template/primer after 30 mins by scintillation counting method.

Molecules are shown by their SMILES. pIC50: −log10 of the molar value. Where a SMILES comes first, the peptide text is derived from it. Bridges are numbered along the chain shown (N, C = ends). [ ]: non-standard residue; d: D form. The star is where a group is joined. ξ: configuration not given here. Quinoxaline2carbonyl = O=C(c1cnc2ccccc2n1)*; ξDap = NCC(N)C(=O)O

This is an account of results in ChEMBL document CHEMBL4371080, “Multiple weak intercalation as a strategy for the inhibition of polymerases” (Bioorg Med Chem Lett, 2019).

Usually pIC50 stands for the negative decadic logarithm of the IC50, by convention in mol/L. In the case of `NC(=O)[C@H](Cc1c[nH]c2ccccc12)NC(=O)CCNC(=O)[C@H](N)Cc1c[nH]c2ccccc12`, the Ratio in assay [1] was 0.3. Further, the pIC50 in assay [2] is 3.73.
Broadly, the inhibition is the relative decrease from the control value, in per cent. As for `NCC1NC(=O)C[C@@H](C(N)=O)NC(=O)C(CNC(=O)c2cnc3ccccc3n2)NC(=O)CNC(=O)CNC(=O)CNC(=O)C(CNC(=O)c2cnc3ccccc3n2)NC1=O` (stereo partly drawn) ([ξDap][ξDap](Quinoxaline2carbonyl)GGG[ξDap](Quinoxaline2carbonyl)D-NH2; lactam N-7), the results for the pIC50 in assay [3], in assay [4] and in assay [2] were 5.15, 4.66 and 5.19, respectively. In assay [5], the Ratio IC50 worked out at 3.5. Also, in assay [6], the inhibition was determined as 89%. Moreover, the Ratio in assay [7] was found to be 0.09.
On to `NC(=O)[C@@H](Cc1c[nH]c2ccccc12)NC(=O)CCCNC(=O)[C@@H](N)Cc1c[nH]c2ccccc12`, for which the Ratio in assay [8] worked out at 0.78.
Consider `COc1cc(NC(C)CCCN)c2ncccc2c1` (stereo unspecified) [PRIMAQUINE PHOSPHATE], for which the pIC50 in assay [2] is 4.00.
As for `NC(=O)[C@@H](N)Cc1c[nH]c2ccccc12`, the negative-log IC50 (pIC50) was 1.80 in assay [3] and 2.00 in assay [2].
Consider `O=C(O)c1cnc2ccccc2n1`, for which the pIC50 in assay [2] was 3.49.
Same read-out and setting: as for `O=C(O)c1cnc2ccccc2c1`, the figure is 2.62.
Regarding `NC(=O)[C@H](Cc1c[nH]c2ccccc12)NC(=O)CCNC(=O)[C@@H](N)Cc1c[nH]c2ccccc12`, in assay [1], the Ratio amounted to 0.25. Besides, the negative-log IC50 (pIC50) in assay [2] is 3.64.
On to `NC(=O)[C@@H](Cc1c[nH]c2ccccc12)NC(=O)CCNC(=O)[C@H](N)Cc1c[nH]c2ccccc12`, for which the Ratio in assay [8] came to 0.39.
With `NC(=O)[C@H](Cc1c[nH]c2ccccc12)NC(=O)CCCNC(=O)[C@@H](N)Cc1c[nH]c2ccccc12`, the Ratio in assay [8] stood at 0.55.
Take `O=C(O)c1ccnc2ccccc12`: the negative-log IC50 (pIC50) in assay [2] is 2.02.
The same measure, in the same setting: as for `COc1ccc2cc([C@H](C)C(=O)O)ccc2c1` [NAPROXEN SODIUM], the figure is 2.17.
With `NCC1NC(=O)C[C@@H](C(N)=O)NC(=O)C(CNC(=O)c2cnc3ccccc3n2)NC(=O)C(CNC(=O)c2cnc3ccccc3n2)NC(=O)C(CNC(=O)c2cnc3ccccc3n2)NC(=O)CNC(=O)CNC1=O` (stereo partly drawn) ([ξDap]GG[ξDap](Quinoxaline2carbonyl)[ξDap](Quinoxaline2carbonyl)[ξDap](Quinoxaline2carbonyl)D-NH2; lactam N-7), the Ratio in assay [7] was found to be 0.16.
